Values joined by “and” are separate entries in the source; they are usually repeats but may differ in a detail not shown here. Equal values may be shown once.
Assays:
[1] = Skin permeation study, Franz diffusion cell; format: in vitro ADME, porcine; conditions: for Cumulative amount at 8th hour: 1% w/v in deionized water; for Cumulative amount at 8th hour / Permeated through skin into receptor / Recovered in donor compartment / Recovered in skin / Recovered in skin outside diffusion area / Recovered in skin swabs / Recovered on parafilm and in washes / Cumulative amount comparison of PPD vs derivatives (times less than PPD): 8 h; for Permeated through skin into receptor / Recovered in donor compartment / Recovered in skin / Recovered in skin outside diffusion area / Recovered in skin swabs / Recovered on parafilm and in washes: mass balance; for recovery at 8 h, 1 % w/v: pig, end of 8 h, read-out: Total recovery (mean percentage parent compound recovery)
Procedure: In each Franz cell, a piece of pig ear skin prepared to a thickness of […] was clamped securely. 5 mL of PBS solution was added to the receiver compartment which was purged of air bubbles to ensure maximal contact of the skin piece with the solution. Donor solution was prepared by dissolving N1-N13 in deionized water at 1% w/v, and 900 μL was added to the donor compartment. The study was conducted for 8 h, and aliquots of 200 μL were removed from the receiver solution and topped up with fresh PBS at each timepoint of 15-minutes intervals for the first hour and every hour after that.
For mass balance, at the end of 8 h, skin pieces and swabs of the top and bottom surface of the skin were collected and stored in ACN for N1-N13 extraction. Donor solution and receiver solution were also collected.
The aliquot samples collected were subjected to 2-step extraction using 750 μL of dichloromethane (DCM). […] The solvent was dried using the TurboVap, and then reconstituted with 198 μL of 0.1% formic acid in 50% methanol in water and spiked with 2 μL of ANP (internal standard). The processed aliquot samples and mass balance samples were then sent for analysis using LC-MS/MS. The compounds' steady state fluxes and permeability coefficients were then calculated by fitting the solution to Fick's […] of diffusion at the steady state (linear part) of each experimental cumulative amount curve.

Hair nuance test = assay: Hair nuance test; parameters: key to L* / a* / b*: CIELAB L*, a*, b* coordinates; key to ΔE (total colour difference to natural hair): ΔE = √((L*−L0)²+(a*−a0)²+(b*−b0)²) vs untreated hair; conditions: for eventual colour of bleached hair, Type B: Type B (Oxidative, H2O2) formulation; for eventual colour of bleached hair, Type C: Type C (Oxidative with coupler resorcinol) formulation; for eventual colour of bleached hair, Type A: Type A (Non-oxidative) formulation
Procedure: 35 g of bleaching powder was mixed with 50 mL of developer then applied onto undyed black hair (wrapped in aluminium foil to enhance the bleaching process) and left on for 45 min. The hair was then rinsed with deionized water and shampoo and left to dry. This process was repeated twice.
Hair dye formulations were prepared from N1-N13 according to methods reported (New Journal of Chemistry. 2019; 43(41):16188-99), and with the compositions stated in Table 11 Bleached hair samples were immersed into the respective formulations for 20 min, then air dried for 20 min. Then they were shampooed twice and treated with conditioner for 5 min.
SkinColorCatch (Delfin Technologies Ltd, Kuopio, Finland) was used to measure CIELAB tristimulus L*, a* and b* values of the dyed hair samples and baseline L0, a0, b0 values from untreated hair. The difference in colour tone (ΔH) and the total colour difference (ΔE) were then derived from the values obtained with the equations below:
ΔH=√{square root over ((a*−a0)^2+(b*−b0)^2)}
ΔE=√{square root over ((L*−L0)^2+(a*−a0)^2+(b*−b0)^2)}

[2] = Type C (Oxidative with coupler resorcinol)

| Structure (SMILES) | Permeated through skin into receptor [1] | Recovered in donor compartment [1] | Recovered in skin [1] | Recovered in skin outside diffusion area [1] | Recovered in skin swabs [1] | Recovered on parafilm and in washes [1] | recovery at 8 h, 1 % w/v [1] | L* (Hair nuance test; Type A (Non-oxidative)) | a* (Hair nuance test; Type A (Non-oxidative)) | b* (Hair nuance test; Type A (Non-oxidative)) | ΔE (total colour difference to natural hair) (Hair nuance test; Type A (Non-oxidative)) | ΔH (difference in colour tone) (Hair nuance test; Type A (Non-oxidative)) | L* (Hair nuance test; Type B (Oxidative)) | a* (Hair nuance test; Type B (Oxidative)) | b* (Hair nuance test; Type B (Oxidative)) | ΔH (difference in colour tone) (Hair nuance test; Type B (Oxidative)) | L* (Hair nuance test; [2]) | a* (Hair nuance test; [2]) | b* (Hair nuance test; [2]) | ΔE (total colour difference to natural hair) (Hair nuance test; [2]) | also measured |
| --- | --- | --- | --- | --- | --- | --- | --- | --- | --- | --- | --- | --- | --- | --- | --- | --- | --- | --- | --- | --- | --- |
| COC(COc1cc(N)ccc1N)OC [Compound N1, 2-(2,2-dimethoxyethoxy)benzene-1,4-diamine] | <0.001 % of applied compound dose | 96.7 % of applied compound dose | 0.05 % of applied compound dose | 0.0015 % of applied compound dose | 0.04 % of applied compound dose | 0.003 % of applied compound dose | 96 ± 1.26% | 23 | 12 | 8 | 19.7 | 13.9 | 9 | −0 | −1 | 2.0 | 21 | 18 | 8 | 22.7 | Cumulative amount at 8th hour [1]: 0.0073 μg/cm^2; ΔE (total colour difference to natural hair) (Hair nuance test; Type B (Oxidative)): 2.0; eventual colour of bleached hair, Type B (Hair nuance test): black colour; ΔH (difference in colour tone) (Hair nuance test; [2]): 19.3; eventual colour of bleached hair, Type C (Hair nuance test): Dark brown |
| COCOc1cc(N)ccc1N [Compound N2, 2-(methoxymethoxy)benzene-1,4-diamine] | <0.001 % of applied compound dose | 98.2 % of applied compound dose | 0.04 % of applied compound dose | 0.0024 % of applied compound dose | 0.05 % of applied compound dose | 0.004 % of applied compound dose | 98 ± 1.33% | 11 | 1 | −2 | 3.7 | 3.16 | 9 | 0 | −1 | 2.0 | 21 | 17 | 6 | 21.4 | Cumulative amount comparison of PPD vs derivatives (times less than PPD) [1]: 453.7; eventual colour of bleached hair, Type A (Hair nuance test): Walnut brown; ΔE (total colour difference to natural hair) (Hair nuance test; Type B (Oxidative)): 2.0; ΔH (difference in colour tone) (Hair nuance test; [2]): 17.7; eventual colour of bleached hair, Type C (Hair nuance test): Black |
| CCOCOc1cc(N)ccc1N [Compound N3, 2-(ethoxymethoxy)benzene-1,4-diamine] | <0.001 % of applied compound dose | 97.2 % of applied compound dose | 0.01 % of applied compound dose | 0.004 % of applied compound dose | 0.04 % of applied compound dose | 0.005 % of applied compound dose | 97 ± 1.05% | 19 | 5 | 4 | 11.6 | 5.8 | 9 | 0 | −1 | 2.0 | 17 | −1 | 2 | 8.1 | Cumulative amount at 8th hour [1]: 0.0088 μg/cm^2 and 0.00875 μg/cm^2; eventual colour of bleached hair, Type A (Hair nuance test): Black; eventual colour of bleached hair, Type B (Hair nuance test): black colour; ΔH (difference in colour tone) (Hair nuance test; [2]): 1.4; eventual colour of bleached hair, Type C (Hair nuance test): Brownish black |
| Nc1ccc(N)c(OCOCO)c1 [Compound N8, ((2,5-diaminophenoxy)methoxy)methanol] | <0.001 % of applied compound dose | 95.0 % of applied compound dose | 0.06 % of applied compound dose | 0.0018 % of applied compound dose | 0.02 % of applied compound dose | 0.004 % of applied compound dose | 95.1 ± 1.3% | 12 | −1 | 6 | 5.91 | 2.43 | 9 | 0 | −1 | 1.41 | 10 | 0 | 3 | 2.23 | Cumulative amount at 8th hour [1]: 0.00843 μg/cm^2; Cumulative amount comparison of PPD vs derivatives (times less than PPD) [1]: 640; eventual colour of bleached hair, Type A (Hair nuance test): Black; ΔE (total colour difference to natural hair) (Hair nuance test; Type B (Oxidative)): 2; eventual colour of bleached hair, Type B (Hair nuance test): black colour; ΔH (difference in colour tone) (Hair nuance test; [2]): 1.49; eventual colour of bleached hair, Type C (Hair nuance test): Brown |
| Nc1ccc(N)c(OCCO)c1 [Compound N9, 2-(2,5-diaminophenoxy)ethan-1-ol] | <0.001 % of applied compound dose | 94.5 % of applied compound dose | 0.05 % of applied compound dose | 0.0022 % of applied compound dose | 0.03 % of applied compound dose | 0.003 % of applied compound dose | 94.6 ± 1.5% | 23 | 8 | 10 | 18.46 | 4.29 | 32 | 0 | 4 | 4.81 | 29 | 19 | 19 | 32.93 | Cumulative amount comparison of PPD vs derivatives (times less than PPD) [1]: 445; eventual colour of bleached hair, Type A (Hair nuance test): brown colour; ΔE (total colour difference to natural hair) (Hair nuance test; Type B (Oxidative)): 23.19; eventual colour of bleached hair, Type B (Hair nuance test): brown colour; ΔH (difference in colour tone) (Hair nuance test; [2]): 5.73; eventual colour of bleached hair, Type C (Hair nuance test): vibrant blue colours and Blue |
